Assay [1] can be described thus: hypotensive activity in male Wistar rats under nembutal anesthesia. Format: in vivo, rat. How it is done:
Using male Wistar rats having a body weight of 350 g under nembutal anesthesia, the hypotensive activity was measured.

Another assay relates to adenylate cyclase. As to conditions: rat pituicytes.

Read-outs that look alike come from different tables or passages of the source. Ends that are not written are not given here.

With “PACAP38 NH2: PACAP38 NH2 synthesized on p-methyl BHA resin according to the amino acid sequence of PACAP38 (Example 5) (HSDGIFTDSYSRYRKQMAVKKYLAAVLGKRYKQRVKNK-NH2; UniProt P18509 132-169, looked up)”, the hypotensive activity came to 3.2 ± 1.9 mm Hg in assay [1] (dosage 0.3 n mole/kg), 17.4 ± 2.4 mm Hg in assay [1] (dosage 1.0 n mole/kg) and 29.8 ± 3.6 mm Hg in assay [1] (dosage 3.0 n mole/kg).

In the case of “Syn.27p-NH2: synthesized 27-NH2, the 1st to 27th positions of mature PACAP38, formula (1")”, the hypotensive activity in assay [1] (dosage 0.3 n mole/kg) is given as 14.5 ± 3.1 mm Hg; in assay [1] (dosage 1.0 n mole/kg) it was 51.9 ± 9.6 mm Hg; in assay [1] (dosage 3.0 n mole/kg), 4.1 mm Hg. The “cAMP (M ± SEM)” value was determined as 9.20 ± 0.20 p mol/ml with adenylate cyclase (peptide 10^-7 M); 9.20 ± 0.00 p mol/ml with adenylate cyclase (peptide 10^-8 M); 7.90 ± 0.30 p mol/ml in the assay with adenylate cyclase (peptide 10^-9 M); 4.00 ± 0.20 p mol/ml in the assay on adenylate cyclase (peptide 10^-10 M); 2.55 ± 0.15 p mol/ml in the assay with adenylate cyclase (peptide 10^-11 M); 2.05 ± 0.15 p mol/ml with adenylate cyclase (peptide 10^-12 M).

For the origin of these results see US5198542A, “DNA encoding a pitvitary adenylate cyclase activating protein and use thereof” (Takeda Chemical Industries, Inc., priority 1989, dated 1993).
